In paper PMC10857906, “PROTAC-mediated NR4A1 degradation as a novel strategy for cancer immunotherapy” (The Journal of Experimental Medicine, 2024):

Experiments:
NR4A1 = biological target: T1, NR4A1 (Homo sapiens, UniProt P22736); test: NR4A1 degradation in CHL-1 human melanoma cells (immunoblotting); assay type: cell-based; conditions: CHL-1 cells
T1 construct: NR-V04 effectively promoted the degradation of NR4A1 in two human melanoma cell lines within 16 h; endogenous in cells; host or cells: CHL-1, A375, WM164, M229 human melanoma cells
Description: Human melanoma cell lines: A375 and CHL-1 (gifts from Dr. D. Zhou, the University of Texas Health Science Center, San Antonio, TX, USA) were cultured in Dulbecco’s Modified Eagles’ Medium (DMEM, D5796; Sigma-Aldrich), WM164 and M229 (gifts from Dr. K.S.M. Smalley’s lab) were cultured in RPMI-1640 (R8758; Sigma-Aldrich). Mouse melanoma cell lines: B16F10 (CRL-6475, ATCC) was cultured in DMEM, SW1 and SM1 (gift from Dr. K.S.M. Smalley, Moffitt Cancer Center, Tampa, FL, USA) were cultured in RPMI. Human epithelial kidney cell lines: HEK293T (293T, CRL-3216; ATCC) and Vhl-KO-293T (gift from Dr. D. Zhou, the University of Texas Health Science Center, San Antonio, TX, USA) were cultured in DMEM. Mouse colon cancer cell lines: MC38 (ENH204-FP; Kerafast Inc.) was cultured in DMEM supplemented with 1 mM glutamine, […] non-essential amino acids (11140050; Thermo Fisher Scientific), 1 mM sodium pyruvate (11360070; Thermo Fisher Scientific), and 10 mM HEPES (15630080; Thermo Fisher Scientific). All cell culturing media were supplemented with 10% fetal bovine serum (FBS, F2442; Sigma-Aldrich), 100 U/ml penicillin, and 100 µg/ml streptomycin (P4333; Sigma-Aldrich).
Samples were lysed using radioimmunoprecipitation assay buffer (RIPA) lysis buffer (150 mM NaCl, 5 mM EDTA, 50 mM Tris pH 8.0, 0.5% sodium deoxycholate, 1% NP-40, 0.1% SDS) supplemented with 1 mM dithiothreitol and protease inhibitors. The lysates were separated by SDS-PAGE and analyzed using standard western blotting procedures ([Khan et al., 2019]). Antibodies: human NR4A1 (ab153914, 1:1,000; Abcam), mouse NR4A1 (14-5965-82, 1:1,000; Invitrogen), NR4A2 (AV38753, 1:1,000; Sigma-Aldrich), NR4A3 (TA804893, 1: 1,000; Thermo Fisher Scientific), VHL (68547, 1:1,000; Cell Signaling), β-actin (13E5, 1:5,000; Cell Signaling), β-tubulin (9F3, 1: 5,000; Cell Signaling), and GAPDH (D16H11, 1: 5,000; Cell Signaling) were employed for protein detection.

NR4A1 and VHL = NR4A1 and VHL (Homo sapiens, UniProt P22736+P40337); test: Proximity ligation assay (PLA) for the NR4A1-VHL ternary complex; assay type: cell-based; set-up: endogenous in cells; host or cells: CHL-1 and A375 human melanoma cells; conditions: CHL-1 and A375 cells, 500 nM, 16 h, 0.5 μM MG132 pretreatment
Description: 5 × 10^4 CHL-1 and A375 cells were cultured in Nunc Lab-Tek Chamber Slide (177402; Thermo Fisher Scientific). The cells were treated with DMSO, 500 nM celastrol, and 500 nM NR-V04 for 16 h with MG132 inhibitor. The PLA was conducted with Duolink In Situ Red Starter Kit Mouse/Rabbit (DUO92101; Sigma-Aldrich) following the standard protocol. Additionally, a non-stain cell group was included as a negative control to account for background signal during PLA assay. The signal was detected using a confocal microscope (LSM 710; Zeiss). Primary antibody: NR4A1 (HPA059742, 2 μg/ml, isotype-rabbit; Sigma-Aldrich) and VHL (MA5-13940, 2 μg/ml, isotype-mouse; Thermo Fisher Scientific).

T1 sequence (P22736 whole entry): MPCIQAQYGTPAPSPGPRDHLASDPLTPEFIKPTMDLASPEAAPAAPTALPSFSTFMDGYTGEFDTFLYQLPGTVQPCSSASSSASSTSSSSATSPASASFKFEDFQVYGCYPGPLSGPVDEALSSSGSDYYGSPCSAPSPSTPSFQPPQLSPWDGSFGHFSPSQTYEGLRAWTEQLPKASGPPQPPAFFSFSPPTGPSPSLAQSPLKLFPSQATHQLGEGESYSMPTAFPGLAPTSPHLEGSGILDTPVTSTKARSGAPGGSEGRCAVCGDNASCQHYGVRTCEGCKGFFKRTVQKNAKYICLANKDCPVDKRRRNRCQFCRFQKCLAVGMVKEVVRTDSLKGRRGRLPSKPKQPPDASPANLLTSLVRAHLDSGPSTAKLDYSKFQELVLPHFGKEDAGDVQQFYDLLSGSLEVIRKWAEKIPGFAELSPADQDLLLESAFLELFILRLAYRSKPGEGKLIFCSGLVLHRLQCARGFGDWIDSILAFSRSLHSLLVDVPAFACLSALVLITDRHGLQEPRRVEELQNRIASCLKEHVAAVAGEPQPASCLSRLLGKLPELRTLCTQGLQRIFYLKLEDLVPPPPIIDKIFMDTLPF
Chain of NR4A1 and VHL (P22736 whole entry): as above
Chain of NR4A1 and VHL (P40337 whole entry): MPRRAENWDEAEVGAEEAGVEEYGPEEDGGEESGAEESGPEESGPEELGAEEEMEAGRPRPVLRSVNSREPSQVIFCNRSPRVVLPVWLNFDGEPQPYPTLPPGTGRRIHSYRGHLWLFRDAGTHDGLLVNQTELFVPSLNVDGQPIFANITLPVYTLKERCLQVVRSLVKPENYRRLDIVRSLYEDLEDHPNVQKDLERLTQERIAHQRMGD
Chain of NR4A1 and VHL (Q15369 whole entry partner): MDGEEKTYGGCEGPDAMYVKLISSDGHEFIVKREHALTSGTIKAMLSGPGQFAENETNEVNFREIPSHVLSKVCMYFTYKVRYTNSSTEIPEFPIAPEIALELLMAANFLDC
Chain of NR4A1 and VHL (Q15370 whole entry partner): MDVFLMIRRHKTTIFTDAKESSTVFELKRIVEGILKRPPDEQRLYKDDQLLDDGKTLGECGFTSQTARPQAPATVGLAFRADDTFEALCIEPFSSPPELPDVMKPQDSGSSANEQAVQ

## CC1=C(O)C(=O)C=C2C1=CC=C1[C@@]2(C)CC[C@@]2(C)[C@@H]3C[C@](C)(C(=O)NCCOCCOCCOCCOCC(=O)N[C@H](C(=O)N4C[C@H](O)C[C@H]4C(=O)N[C@@H](C)c4ccc(-c5scnc5C)cc4)C(C)(C)C)CC[C@]3(C)CC[C@]12C [NR-V04]
NR4A1; 250 nM, 16 h, immunoblotting and densitometry
  NR4A1 protein level, initial screening: highest potency in reducing the protein level of NR4A1
NR4A1; 0.5 μM MG132 10 min, then 500 nM NR-V04 16 h
  NR4A1 protein level with proteasome inhibitor MG132 pretreatment: effectively rescued the NR4A1 protein level
NR4A1; 500 nM, 4 h
  NR4A1 protein level at early time point: initial induction of NR4A1 protein
NR4A1; 10 µM VHL 032 10 min, then 500 nM NR-V04 16 h
  NR4A1 degradation with VHL ligand VHL-032 pretreatment: prevented
NR4A1; 16 h treatment, read-out: 50% degradation concentration (DC50) of NR4A1
  DC50: 229 nM
NR4A1 and VHL
  PLA signals (ternary complex formation NR4A1-VHL): induced strong PLA signals
